Measured values reported in patent US12397059B2, “Compounds and methods for the treatment and prevention of fibrotic disease states and cancer” (Purdue Research Foundation, priority 2019, dated 2025).

Key:
[1] = test system: BM-induced experimental pulmonary fibrosis in mice; settings: mouse, in vivo
Procedure: Studies were also performed to determine if macrophages in pulmonary fibrotic lungs might be specifically targeted with folate-linked drugs in vivo. […] (The BM model is widely regarded to be helpful in terms of enabling mechanistic investigations relevant to fibrogenesis in an in vivo context.)
More specifically, eight-week-old C57BL6 male mice from Charles River (average weight 22 g to 25 g) were housed under pathogen-free conditions at room temperature (22° C.) under a 12 hours light-dark cycle. Mice were placed on a folate deficient chow (Envigo Teklad Global Rat Food Pellets) for 1 week prior to the BM or PBS instillation. Fresh water and folate-deficient diet were freely available. All animal procedures were approved by the Purdue Animal Care and Use Committee in accordance with National Institute of Health guidelines.
Thereafter, the mice were anesthetized with ketamine/xylazine and the necks of the mice were shaved using hair remover lotion and then sterilized with 70% alcohol. A small incision was made on the neck to visualize the trachea. Mice were positioned at a 75-degree angle and injected intratracheally with 100 μL sterile PBS or BM (Cayman Chemicals, Ann Arbor, MI; #13877) dissolved in PBS (0.75 mg/kg) using a 1 cc syringe with 26 G needle. Body weights were monitored every other day throughout the experiment.
Lobes of the right lung collected above were weighed, placed in a pressure-tight vial (Supelco Inc., Bellefonte, PA; #27003), and hydrolyzed with 6N HCl (10 ml/g, v/w) in a sand bath at 120° C. for 3.5 hours. The hydrolyzed solution was cooled at 4° C. for 15 min and transferred to a 1.5 ml Eppendorf tube prior to centrifugation at 12,000 rcf for 15 min at 4° C. Supernatant was carefully collected, aliquoted and used for hydroxyproline (HYP) analysis.
For the subsequent HYP analysis, 10 μl of sample was transferred into a 96-well plate and neutralized with 10 μl of 5.3 M sodium hydroxide solution. Isopropanol (40 μl) was then added to each well followed by 20 μl of oxidation buffer and the mixture was incubated on a shaker at room temperature for 5 min. Analytical reagent (260 μl) was added, and the plate was incubated on a shaker at room temperature for 30 seconds and incubated immediately at 60° C. for 25 min. The absorbance was measured at 560 nm (A560) within 15 min. All reagents were prepared according to a previously reported protocol.
For histological analysis of the lung sections, fixed lungs (see above) were embedded in paraffin, sectioned and stained with hematoxylin-eosin (H&E), Masson's trichrome or F3 (anti-mouse FRβ antibody). Tissue sections were examined in a blinded manner by a licensed pathologist. More than 90×10^6 cells were quantified per section using Aperio-Image Scope (Leica Biosystems, Wetzlar, DE).
For this, BM-treated mice were intravenously injected every other day beginning on day 10 with either vehicle (3% DMSO in PBS) or Compound 1B (see FIG. 8A). […] In BM-induced experimental pulmonary fibrosis in mice, inflammation is known to persist for about 9-10 days after BM installation. Because, inflammation to fibrosis switch happens in this model approximately day 9 to day 14, and profibrotic markers start appearing at about day 10, dosing began on day 10 (FIG. 8A).
Two doses were given every other day till day 21. The individual doses on a day are separated by 6 hours to prevent any “tolerance” to TLR agonists. Mice were then sacrificed on day 21 and subjected immediately to bronchoalveolar lavage followed by resection of the lungs for immunohistochemistry and quantitation of collagen and hydroxyproline.

[2] = test system: THP-1 cells polarized to M2-like macrophages; assay: Reprogramming of M2-like THP-1 macrophages, marker gene analysis by qPCR; type: cell-based, human; settings: M2-induced THP-1, 2 hours, qPCR
Procedure: THP-1 cells were seeded into 96-well plates at a density of 60,000 cells/well. Cells were differentiated into unpolarized macrophages by 48 hours incubation with 200 nM PMA followed by 24 hours incubation in fresh RPMI medium. […] Cultures were maintained at 37° C. in a humidified 5% CO2 incubator.
Total RNA was isolated from 1×10^5 —2×10^5 macrophages using a Quick-RNA™ MicroPrep kit (Zymo Research, Irvine, CA) according to the manufacturer-recommended protocol. […] IL-6, CXCL10, IFNα, IFN-γ and CD86 were used as markers for an M1 phenotype, while CCL18, CD206, CD163 and Arg1 were employed as markers for the M2 phenotype. IL-1β, PDGFβ, MMP9 and TIMP 3 were measured as indicators of a profibrotic phenotype. IRAK-4 was used as an indicator of TLR7 stimulation. To control for specificity of the amplification products, a melting curve analysis was performed. […] Each sample was analyzed independently in triplicate for each marker.
Primarily, human monocytic (THP-1) cells were induced to the M2-like phenotype using the methods and materials previously described. In particular, THP-1 cells were seeded into 96-well plates at a density of 60,000 cells/well. Cells were differentiated into unpolarized macrophages by 48 h incubation with 200 nM PMA followed by 24 hours incubation in fresh RPMI medium. The resulting macrophages were polarized to an M2-like phenotype by incubation with 20 ng/ml IL-4, 20 ng/ml IL-13, and 5 ng/mL IL-6 for 48 h. Cultures were maintained at 37° C. in a humidified 5% CO2 incubator.
In addition to the nonconjugated TLR7 agonist, conjugated compounds of the present disclosure were likewise evaluated. […] The cells were subsequently harvested for gene analysis by qPCR and the relative expression of CCL18 (FIG. 14A), CD206 (FIG. 14B), and IL-1β (FIG. 14C) analyzed.

[3] = test system: M2-induced THP-1 macrophages; assay: Secreted CCL18 and IL-1β in THP-1 supernatants by ELISA; type: cell-based, human; settings: THP-1 cells of FIGS. 14A-14C, low concentration range (0.1-10 nM)
FRβ = target: T1, FRβ (Mus musculus, UniProt Q05685); settings: in vivo
T1 construct: from tissue; host or cells: major organs (heart, lung, spleen, liver, small intestine, large intestine, kidney) of bleomycin- or PBS-treated C57BL/6 mice; FRβ-expressing lung macrophages
Procedure: FIGS. 7C and 7D show FRβ IHC staining of human IPF lung tissue (FIG. 7C) and healthy human lung tissue (FIG. 7D). […] After 2 hours, mice were sacrificed prior to analysis.

FRβ positive macrophages = settings: mouse, in vivo
Procedure: To evaluate if profibrotic lung macrophages in these mice can be specifically targeted with folate-linked drugs, 10 days after the instillation, 10 nmol (for in vivo imaging) or 100 nmol (for in vivo labeling) of a folate-linked, near infrared fluorescent dye (OTL38) with or without 200-fold excess of FA-glucosamine (a competitor of OTL38) was injected into the tail veins of BM-treated mice and the dye uptake in the major organs was evaluated.
Finally, for the in vivo folate imaging studies, major organs (heart, lung, spleen, liver, small intestine, large intestine, and kidney) were resected and imaged using an AMI live imager (Spectral Instruments Imaging, Tucson, AZ). For in vivo folate receptor labeling studies, lungs of the mice were harvested immediately following euthanasia, digested with a lung dissociation kit (Miltenyi Biotec, Bergisch Gladbach, DE; #130-098-427) as described by gentleMACS Octo Dissociator with Heathers (Miltenyi Biotec, Bergisch Gladbach, DE; #130-096-427) as described by manual and filtered through a 70 μm cell strainer (Miltenyi Biotec, Bergisch Gladbach, DE; #130-098-462). […] Labeled macrophages were then washed twice in PBS, stained with 7AAD (viability stain) for 15 min and analyzed by flow cytometry using BD Accuri C6 Software (BD Biosciences, San Jose, CA). […]

T1 sequence (Q05685 21-227): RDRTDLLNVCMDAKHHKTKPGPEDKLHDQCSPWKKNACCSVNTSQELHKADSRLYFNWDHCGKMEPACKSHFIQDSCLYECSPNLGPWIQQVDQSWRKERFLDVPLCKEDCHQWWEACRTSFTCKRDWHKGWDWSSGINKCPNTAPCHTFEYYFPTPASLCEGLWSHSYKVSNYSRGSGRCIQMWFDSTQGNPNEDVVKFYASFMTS

| Compound | CCL18 relative expression [2] | CD206 relative expression [2] | IL-1β relative expression [2] | effectiveness in reducing profibrotic markers relative to the other compounds [2] | secretion of CCL18 protein [3] | other results |
| --- | --- | --- | --- | --- | --- | --- |
| CCCCc1nc2c(N)nc3ccccc3c2n1CC(C)(C)O [Compound 1A, 1-(4-Amino-2-butyl-1H-imidazo[4,5-c]quinolin-1-yl)-2-methylpropan-2-ol] |  |  |  |  |  | body weight change [1]: rapid body weight loss followed by death |
| Nc1nc2ncc(CNc3ccc(C(=O)N[C@@H](CCC(=O)NCCOCCOCCOCCOCC4CCCN(CCNc5ccc(Cn6c(=O)[nH]c7c(N)nc(C(F)(F)F)cc76)cn5)C4)C(=O)O)cc3)nc2c(=O)[nH]1 (some centres unmarked) [Compound 3D] | reduced | reduced | reduced | most effective relative to the other compounds | downregulated |  |
| Nc1nc2ncc(CNc3ccc(C(=O)NC(CCC(=O)N[C@@H](CSSCCOC(=O)OCC4CCCN(CCNc5ccc(Cn6c(=O)[nH]c7c(N)nc(C(F)(F)F)cc76)cn5)C4)C(=O)O)C(=O)O)cc3)nc2c(=O)[nH]1 (some centres unmarked) [Compound 3B] | reduced | reduced | reduced |  | downregulated |  |
| Nc1nc(C(F)(F)F)cc2c1[nH]c(=O)n2Cc1ccc(NCCN2CCCC(CO)C2)nc1 (centres unmarked) [Compound 3A] |  |  |  |  | downregulated |  |
| Nc1nc2ncc(CNc3ccc(C(=O)N[C@@H](CCC(=O)NCCOCCOCCOCCOCCOCCOCCOCCOCCOCCOCCOCCOCCOCC4CCCN(CCNc5ccc(Cn6c(=O)[nH]c7c(N)nc(C(F)(F)F)cc76)cn5)C4)C(=O)O)cc3)nc2c(=O)[nH]1 (some centres unmarked) [Compound 3C] | reduced | reduced | reduced | most effective relative to the other compounds | downregulated | benefit to the subject mice [1]: did not show measurable benefit; hydroxyproline (HP) [1]: decreasing; number of BALF cells [1]: decreasing; survival rates [1]: increased the survival rates |
| OTL38 |  |  |  |  |  | OTL38 fluorescence in organs of healthy mice (FRβ): only observed in the kidneys; lung accumulation with 200-fold excess folate-glucosamine (FRβ): nearly quantitative blockade of lung accumulation; folate-dye retention with 200-fold excess folate-glucosamine (FRβ positive macrophages): blocked essentially all folate-dye retention |
